Experimental data: PMC9170106, “Pre-clinical evaluation of LASSBio-1491: From in vitro pharmacokinetic study to in vivo leishmanicidal activity” (PLoS ONE, 2022)
Values joined by “and” are separate entries in the source; they are usually repeats but may differ in a detail not shown here. Equal values may be shown once.

What was measured:
[1] = test system: peritoneal macrophages infected with L. major LV39; assay: Nitrite measurement (Griess reaction) in infected macrophages; assay type: cell-based, BALB/c mice; conditions: BALB/c macrophages infected with L. major LV39
Procedure: Briefly, female BALB/c mice (6 to 8 weeks old) received 1 mL sterile of 3% sodium thioglycolate by intraperitoneal route (i.p.) and were euthanized after 4 days. The intraperitoneal lavage was collected from the peritoneal cavity of mice using sterile PBS and cells were counted in a hemocytometer. Peritoneal adherent cells (macrophages) were plated at a concentration of 2 x 10^5 cells per well in 24-well culture plates containing glass coverslips. Subsequently, L. major promastigotes (harvested after the third passage) were added at a concentration of 2 x 10^6 parasites per well, aiming to infect the macrophages. […] After 24 hours in an incubator at 37 °C and 5% CO2, the coverslips were washed with PBS and stained with Giemsa-May Grünwald. The number of amastigotes in 100 macrophages was determined by counting using optical microscope (100x objective). Furthermore, the cell culture supernatant was also collected for nitrite measurement using the Griess reaction, an indirect way of determining the concentration of nitric oxide in the supernatant of infected macrophages from the experimental groups. The results obtained were expressed as the mean ± S.E.M. of the number of amastigotes or nitrite concentration from duplicate cultures of representative assays, with the data analyzed by ANOVA and Dunnett hoc tests, considering a significance level of p < 0.05. […]

[2] = test system: L. major amasitigote 5-ASKH substrain; assay: In vitro activity against intramacrophage amastigotes, 5-ASKH; assay type: cell-based; conditions: Leishmania major
Procedure: (§1) Briefly, female BALB/c mice (6 to 8 weeks old) received 1 mL sterile of 3% sodium thioglycolate by intraperitoneal route (i.p.) and were euthanized after 4 days. The intraperitoneal lavage was collected from the peritoneal cavity of mice using sterile PBS and cells were counted in a hemocytometer. Peritoneal adherent cells (macrophages) were plated at a concentration of 2 x 10^5 cells per well in 24-well culture plates containing glass coverslips. Subsequently, L. major promastigotes (harvested after the third passage) were added at a concentration of 2 x 10^6 parasites per well, aiming to infect the macrophages. […] After 24 hours in an incubator at 37 °C and 5% CO2, the coverslips were washed with PBS and stained with Giemsa-May Grünwald. The number of amastigotes in 100 macrophages was determined by counting using optical microscope (100x objective). Furthermore, the cell culture supernatant was also collected for nitrite measurement using the Griess reaction, an indirect way of determining the concentration of nitric oxide in the supernatant of infected macrophages from the experimental groups. The results obtained were expressed as the mean ± S.E.M. of the number of amastigotes or nitrite concentration from duplicate cultures of representative assays, with the data analyzed by ANOVA and Dunnett hoc tests, considering a significance level of p < 0.05. In addition, the linear regression analysis from the Kc values at employed concentrations was used to determine the IC50.

[3] = test system: L. major amastigote LV39 substrain; assay: In vitro activity against intramacrophage amastigotes, LV39; assay type: cell-based; conditions: Leishmania major
Procedure: as §1

PAMPA-GIT permeability = assay: PAMPA-GIT permeability
From the text: The parallel artificial membrane permeability assay uses 96-well plate in a “sandwich” type system, where one plate overlaps the other (PAMPA). […] The lipid mixture that impregnates the PVDF filter has a different constitution for the permeability tests for the blood-brain barrier (Brain lipid from pig extract in dodecane) and gastro-intestinal tract (L-α soy phosphatidylcholine in dodecane). In the PAMPA BBB and TGI assays, the optical density values obtained in the reading at each selected wavelength, for each of the compounds were analyzed in comparison with the values of several controls. In the case of the BBB, these values were used to elaborate an equation and determine the permeability coefficient (Pe), using a previously elaborated spreadsheet, and, for the TGI, these values were used to determine the absorbed fraction (Fa%), both using the Excel® program.

[4] = Aqueous solubility by UV spectroscopy; assay type: physicochemical; conditions: phosphate buffer solution, buffer solution pH 7.4, 37 °C
Procedure: The solubility assay was carried out by correlating the concentration with the absorbance obtained by ultraviolet. First, a stock solution of the compound was prepared by dissolving 1 mg in 20 mL of methanol, and then the wavelength of greatest absorption of each compound was obtained by scanning between wavelengths from 200 nm to 500 nm. From the stock solution, six dilutions were prepared (dilution factor: 2.5), and the absorbance reading was performed in quartz cuvettes (10 mm optical path) in the UV-VIS spectrophotometer (Femto 800XI) at the previously determined wavelength. With the values obtained, a calibration curve with linear regression was made, in which the linearity of the analytical method is observed, with values of correlation coefficient (p > 0.95).
The compound was dissolved in a phosphate buffer solution (pH 7.4), prepared according to the Brazilian Pharmacopoeia (Vol.1) to obtain a supersaturated solution. The supersaturated aqueous solution was kept under stirring for 4 hours at 37°C and then the sample was filtered on a 0.45 μm filter to carry out the reading at the corresponding wavelength of the compound. The solubility was then determined through the equation of the straight line obtained by the linear regression of the calibration curve of each compound [19].

[5] = test system: L. major promastigote LV39 substrain; assay: In vitro activity against promastigotes, LV39; assay type: cell-based; conditions: Leishmania major
Procedure: (§2) L. major promastigotes LV39 (MRHO/SU/59/P) were obtained from João […] Preto Medical School- USP. L. major IOC/[…] promastigotes (MHOM/SU/1973/5-ASKH) were obtained from Leishmania collection of the Oswaldo Cruz Institute-Fiocruz. L. major promastigotes LV39 (MRHO/SU/59/P) and L. major IOC/[…] (MHOM/SU/1973/5-ASKH) were grown in a Schneider's medium (Sigma-Aldrich, St. […] The determination of the leishmanicidal activity of LASSBio-1491 against L. major promastigotes was carried out according to the methodology described by […] and colleagues (1996). […] After 48h of incubation in a Biochemical Oxygen Demand (B.O.D.) incubator, the promastigotes were counted using a hemocytometer. The results obtained were expressed as the mean ± S.E.M. of the number of promastigotes from triplicate cultures of representative assays, with the data analyzed by ANOVA and Dunnett hoc tests, considering a significance level of p < 0.05.

[6] = test system: L. major promastigote 5-ASKH substrain; assay: In vitro activity against promastigotes, 5-ASKH; assay type: cell-based, Leishmania major
Procedure: as §2

- IC50 ([2]; Macrophage, amastigote 5-ASKH in macrophages, 24 h): 7.3 ± 0.6 µM
- IC50 ([3]; Macrophage, amastigote LV39 in macrophages, 24 h): 8.3 ± 0.3 µM
- Fa experimental (PAMPA-GIT permeability; GIT-PAMPA, absorbed fraction): 78.8%
- Papp (PAMPA-GIT permeability; PAMPA): 4.08 ×10⁻⁶ cm/s
- solubility at 4 h [4]: 8.72 µM and 3.06 µg/mL
- IC50 ([5]; promastigote LV39, 48 h): 7.7 ± 0.1 µM
- IC50 ([6]; Leishmania major, 48 h): 7.5 ± 0.3 µM
Structure (SMILES): O=C(N/N=C/c1ccc([N+](=O)[O-])o1)NNC(=O)c1ccc(Cl)cc1 [LASSBio-1491]
- NO production (nitrite) [1]: increased NO production
- Emax ([2]; amastigote 5-ASKH, read-out: Maximum effect (% ± S.E.M.)): 67.5 ± 4.8%
- Emax ([3]; amastigote LV39, read-out: Maximum effect (% ± S.E.M.)): 60.2 ± 1.9%
- Classification (PAMPA-GIT permeability; GIT-PAMPA): High (high intestinal permeability (70–100%))
- Emax ([5]; promastigote LV39, read-out: Maximum effect (% ± S.E.M.)): 68.3 ± 0.2%
- times less potent than pentamidine [6]: about 10 times
- Emax ([6]; Leishmania major, read-out: Maximum effect (% ± S.E.M.)): 68.4 ± 0.1%
